Eight molecules from ChEMBL document CHEMBL1141887, “Design and synthesis of (E)-1,1,2-triarylethenes: novel inhibitors of the cyclooxygenase-2 (COX-2) isozyme” (Bioorg Med Chem Lett, 2005) can be followed below.

The target in this assay is T1, Prostaglandin G/H synthase 1 (Ovis aries, UniProt P05979).
T1 sequence (P05979 whole entry): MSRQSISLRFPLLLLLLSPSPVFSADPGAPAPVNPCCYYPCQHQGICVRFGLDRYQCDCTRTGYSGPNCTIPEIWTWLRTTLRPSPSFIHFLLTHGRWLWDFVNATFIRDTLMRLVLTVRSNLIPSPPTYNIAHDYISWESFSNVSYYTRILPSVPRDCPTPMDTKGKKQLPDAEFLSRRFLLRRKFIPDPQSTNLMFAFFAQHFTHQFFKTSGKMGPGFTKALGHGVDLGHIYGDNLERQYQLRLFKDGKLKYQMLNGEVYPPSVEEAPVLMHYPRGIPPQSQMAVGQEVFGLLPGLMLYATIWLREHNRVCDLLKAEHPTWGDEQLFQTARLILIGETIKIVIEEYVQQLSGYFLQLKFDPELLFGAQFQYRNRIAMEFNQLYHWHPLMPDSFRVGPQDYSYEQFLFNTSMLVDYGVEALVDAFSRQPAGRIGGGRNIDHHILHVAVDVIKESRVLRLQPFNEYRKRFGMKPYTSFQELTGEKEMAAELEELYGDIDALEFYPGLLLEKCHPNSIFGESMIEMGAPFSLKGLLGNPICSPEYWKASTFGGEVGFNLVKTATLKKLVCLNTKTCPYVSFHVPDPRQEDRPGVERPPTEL
Put plainly: In vitro inhibitory concentration against ovine Cyclooxygenase-1.
As a reminder, the IC50 is the point on the concentration scale where inhibition reaches its midpoint. Higher therefore signals a need for much substance. On to `CS(=O)(=O)c1ccc(/C(=C/c2ccccc2)c2ccccc2)cc1`, for which the IC50 was 0.14 µM.

For `Cc1ccc(/C=C(\c2ccccc2)c2ccc(S(C)(=O)=O)cc2)cc1`, the IC50 was > 100 µM.

In the case of `Cc1ccc(C(=Cc2ccc(S(C)(=O)=O)cc2)c2ccc(C)cc2)cc1`, the IC50 is > 100 µM.

On to `CS(=O)(=O)c1ccc(C=C(c2ccc(F)cc2)c2ccc(F)cc2)cc1`, for which the IC50 is > 100 µM.

Take `CS(=O)(=O)c1ccc(/C(=C/c2ccc(Cl)cc2)c2ccccc2)cc1`: the IC50 is > 100 µM.

For `CS(=O)(=O)c1ccc(/C(=C/c2ccc(F)cc2)c2ccccc2)cc1`, the IC50 was > 100 µM.

For the molecule `CS(=O)(=O)c1ccc(C=C(c2ccc(Cl)cc2)c2ccc(Cl)cc2)cc1`, the IC50 was > 100 µM.

`CS(=O)(=O)c1ccc(/C(=C/c2ccc(F)c(F)c2)c2ccccc2)cc1`: the IC50 is > 100 µM.
